Drawing on BindingDB's records for doi:10.1016/j.chembiol.2007.09.006 (University of Virginia At Charlottesville, 2007), this text covers IC50 for 15 compounds.

The experiment deals with T1, Core-binding factor subunit beta (Homo sapiens, UniProt Q13951).
T1 sequence (Q13951 whole entry): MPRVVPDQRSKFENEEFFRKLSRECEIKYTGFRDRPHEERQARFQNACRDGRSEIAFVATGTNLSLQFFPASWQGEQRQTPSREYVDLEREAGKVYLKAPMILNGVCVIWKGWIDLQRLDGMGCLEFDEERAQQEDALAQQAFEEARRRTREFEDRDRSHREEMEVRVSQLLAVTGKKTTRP
Briefly: FRET Assay. Particulars: pH 7.5; 23 °C. The procedure: Protein concentrations were determined by UV absorption at 433 nm for Cerulean-Runt and 513 nm for Venus-CBFbeta. […] Mean values of IC50 originating from two independent measurements performed in duplicate together with the standard deviations are reported.

In general, IC50 refers to the concentration that gives 50% inhibition. Higher therefore signals lower potency.

`Nc1nc(-c2ccc(C(F)(F)F)cc2)cs1` [thiazol-2-amine, 5] registered an IC50 of 9 µM. The figure for `COc1ccc(-c2csc(N)n2)cc1` [thiazol-2-amine, 6] is 18.5 µM. The figure for `COc1ccc(-c2csc(N)n2)cc1OC` [thiazol-2-amine, 7] is 40.5 µM. The figure for `Nc1nc(-c2ccc3c(c2)OCO3)cs1` [thiazol-2-amine, 8] is 9 µM; for `Nc1nc(-c2cccc(Cl)c2)cs1` [thiazol-2-amine, 9] it is 12 µM.

Take `Cc1cccc(-c2csc(N)n2)c1` [thiazol-2-amine, 10]: the IC50 is 110 µM. The value for `COc1cccc(-c2csc(N)n2)c1` [thiazol-2-amine, 11] was 61 µM. The value for `Cc1ccccc1-c1csc(N)n1` [thiazol-2-amine, 13] was 5 µM; that for `Nc1nc(-c2ccccc2Cl)cs1` [thiazol-2-amine, 14] was 1.1 µM. The value for `Nc1nc(-c2ccc(Cl)cc2Cl)cs1` [thiazol-2-amine, 16] was 49 µM; that for `CCc1sc(N)nc1-c1ccc(OC)cc1` [thiazol-2-amine, 17] was 3.2 µM.

For `CCCc1sc(N)nc1-c1ccc(OC)cc1` [thiazol-2-amine, 18], the IC50 is 23.5 µM. The value for `CCc1sc(N)nc1-c1cccc(C)c1` [thiazol-2-amine, 19] was 66 µM; that for `CCc1sc(N)nc1-c1ccccc1OC` [thiazol-2-amine, 20] was 17 µM; that for `CCOc1ccc(-c2nc(N)sc2CC)cc1` [thiazol-2-amine, 21] was more than 500 µM.
